Source: patent US20160038505A1, “METHODS AND COMPOSITIONS FOR TREATING IMPULSE CONTROL DISORDER, ANXIETY-RELATED DISORDERS, VIOLENCE AND/OR ANGER, OR REGULATING FOOD INTAKE” (priority 2014, published 2016)

Tests used:
[1] = test system: adult wild type short-fin zebrafish; test: Zebrafish novel tank test (NTT), anxiety-related endpoints; format: in vivo
Protocol: A total of 60 adult wild type short-fin zebrafish (˜50:50 male:female ratio) were used in this study. Fish were housed in groups of 20-30 fish per 40-L tank. Tanks were filled with filtered water and maintained at 25° C. Illumination (1000-1100 1×) was provided by ceiling-mounted fluorescent lights on a 12-h cycle (on: 6.00 h, off: 18.00 h) according to the standards of zebrafish care. All fish used in this study were experimentally naïve and fed Tetramin Tropical Flakes (Tetra USA, Blacksburg, Va.) twice a day. Following behavioral testing, the animals were euthanized in 500 mg/L Tricaine (Sigma-Aldrich, St. Louis, Mo.) buffered to pH=7.0. Animal experimentation in this study fully adhered to national and institutional guidelines and regulations.
As such, a 1 mg/L dose of noribogaine (DMX1 or Cpd) was chosen. A standard 20-min pre-treatment time was chosen based on experience with a wide range of other neuroactive compounds and the results of pilot studies. This exposure time was also sufficient for provoking physiological (e.g., cortisol and c-fos) responses of zebrafish to multiple drugs. Noribogaine exposure in this study was performed by submerging individual zebrafish in a 1-L plastic beaker for 20 min prior to the testing. The solution was regularly changed after each exposure, to ensure that each fish is exposed to a consistent concentration of noribogaine. Control fish were exposed to noribogaine-free water for the same treatment time, as described above.
Apparatus: Behavioral testing was performed between 11:00 and 15:00 h using tanks with water adjusted to the holding room temperature (25° C.). The study used the novel tank test (NTT) protocol. NTT represents one of the most commonly used neurophenotyping tests for adult zebrafish. To avoid the test battery or handling effects, each assay was performed once, on a separate individual naïve fish each time. Prior to testing, fish were pre-exposed individually in a 1-L plastic beaker for 20 min to either noribogaine-treated or noribogaine-free water. During testing, zebrafish behavior was recorded by two trained observers blind to the treatments, who manually scored different behavioral endpoints (inter- and intra-rater reliability in all experiments >0.85) with subsequent automated analysis of generated traces by Ethovision XT8.5 software (Noldus IT, Wageningen, Netherlands). The NTT, used to assess zebrafish anxiety and locomotion, was a 1.5-L trapezoidal tank (15 cm height×28 cm top×23 cm bottom×7 cm width; Aquatic Habitats, Apopka, Fla.) maximally filled with water and divided into two equal virtual horizontal portions by a line marking the outside walls. Fish were individually pre-exposed to water (water control) or noribogaine (1, 5 and 10 mg/L) for 20 min and tested in the standard 5-min NTT.
Behavioral analyses: Zebrafish behavior was recorded by trained observers, scoring the latency to reach the top half of the tank(s), time spent in top(s), number of transitions to top, as well as the number and duration(s) of freezing bouts. Freezing was defined as a total absence of movement, except for the gills and eyes, for >2 s. Trials were also recorded to a computer using a USB webcam (2.0-megapixel, Gigaware, UK) and subsequently analyzed by Ethovision XT8.5, assessing distance traveled (m), velocity (m/s), and meandering endpoints. During manual observation, videos were recorded in MPEG1 format with the maximum sample rate 30 fps for each trial by auto-focusing 2.0 MP USB webcams, placed 25 cm in front of the tanks, and attached to laptop computers. Recorded videos were analyzed with Ethovision XT8.5 software. All environments were calibrated for each arena and the calibration axes were placed to designate the origin (0,0) at the center of each tank. The track data for each fish was exported as raw data into separate spreadsheets. […]

[2] = Serum pharmacokinetics in opioid-dependent patients (Phase IB); format: in vivo, human; set-up: unit not given here
Protocol: Three cohorts of nine (9) subjects (6 administered noribogaine and 3 administered placebo in each cohort) were evaluated for tolerability, pharmacokinetics, and efficacy. Cohort 1 received a single dose of 60 mg noribogaine or placebo. Cohort 2 received a single dose of 120 mg noribogaine or placebo. Cohort 3 received a single dose of 180 mg noribogaine or placebo.
FIG. 4 indicates the serum noribogaine concentration over time for each cohort.

In the case of `CC[C@H]1CC2C[C@H]3c4[nH]c5ccc(O)cc5c4CCN(C2)C13` [noribogaine], the anxiolytic-like behavior ([1]; 1 mg/L) is reported as “robust anxiolytic-like behavior without any overt hyperactivity/hypoactivity or circling behaviors”, the “efficacy, pilot experiments” value ([1]; 1 mg/L) is reported as “sub-maximal efficacy” and the “distance moved and velocity” value ([1]; 1-, 5- and 10-mg/L) is reported as “moderate, but non-significant, decrease”. The “freezing bouts frequency and duration of freezing” value ([1]; 1-, 5- and 10-mg/L) was “no difference in freezing bouts frequency”, the “movement mobility (HF hi-mobility events)” value ([1]; 1-, 5- and 10-mg/L) was “dose-related disappearance of HF hi-mobility events” and the “transitions to upper half of the tank” value ([1]; 1-, 5- and 10-mg/L vs control) was “none of the treatment groups showed a statistically significant change”. The “overall turning rates and patterns (meander total)” value ([1]; 5- and 10-mg/L) was “statistically significant decrease in overall turning rates and patterns (meander)”, the “swimming motor activity, pilot experiments” value ([1]; 5- and 10-mg/L) was “caused reduction in selected swimming motor activity levels” and the “number of top transitions” value ([1]; 5 and 10 mg/L (control 10)) was about 7. For the same molecule, the EC50 ([1]; Danio rerio, 20 min, water immersion 20 min, read-out: half-efficacy on indices of anxiety levels (time in top, latency in top)) was under 1 µg/mL, the “time spent in top portion of the tank” value ([1]; each of 1-, 5- and 10-mg/L) was “statistically significant increase in the duration of time spent in the defined top portion of the tank” and the “latency to the upper half of the tank” value ([1]; each of 1-, 5- and 10-mg/L, 20 min immersion, 5-min NTT) was “statistically significant decrease in latency to the upper half of the tank”. For the same molecule, the turning/rotation rate ([1]; significant at the 10 mg/L dose) was “decrease in turning/rotation rate”, the Serum noribogaine concentration ([2]; 60 mg, time 0) was 0 and the Serum noribogaine concentration ([2]; 60 mg, time 0.5) was 3.75. For the same molecule, the Serum noribogaine concentration ([2]; 60 mg, time 1) was 17.86, the Serum noribogaine concentration ([2]; 60 mg, time 1.5) was 42.54 and the Serum noribogaine concentration ([2]; 60 mg, time 2) was 53.01. It also gave a Serum noribogaine concentration ([2]; 60 mg, time 2.5) of 63.71, a Serum noribogaine concentration ([2]; 60 mg, time 3) of 72.95 and a Serum noribogaine concentration ([2]; 60 mg, time 3.5) of 71.43. It also gave a Serum noribogaine concentration ([2]; 60 mg, time 4) of 72.89, a Serum noribogaine concentration ([2]; 60 mg, time 5) of 65.74 and a Serum noribogaine concentration ([2]; 60 mg, time 6) of 64.47. It also gave a Serum noribogaine concentration ([2]; 60 mg, time 7) of 58.26, a Serum noribogaine concentration ([2]; 60 mg, time 8) of 59.01 and a Serum noribogaine concentration ([2]; 60 mg, time 12) of 46.10. It also gave a Serum noribogaine concentration ([2]; 60 mg, time 16) of 37.99, a Serum noribogaine concentration ([2]; 60 mg, time 24) of 27.76 and a Serum noribogaine concentration ([2]; 60 mg, time 36) of 20.32. For the same molecule, the Serum noribogaine concentration ([2]; 60 mg, time 48) was 14.56, the Serum noribogaine concentration ([2]; 60 mg, time 60) was 9.32 and the Serum noribogaine concentration ([2]; 60 mg, time 72) was 6.55. For the same molecule, the Serum noribogaine concentration ([2]; 60 mg, time 96) was 3.41, the Serum noribogaine concentration ([2]; 60 mg, time 120) was 1.64 and the Serum noribogaine concentration ([2]; 60 mg, time 144) was 0.89. It also gave a Serum noribogaine concentration ([2]; 120 mg, time 0) of 0, a Serum noribogaine concentration ([2]; 120 mg, time 0.5) of 19.66 and a Serum noribogaine concentration ([2]; 120 mg, time 1) of 76.04. For the same molecule, the Serum noribogaine concentration ([2]; 120 mg, time 1.5) was 98.80, the Serum noribogaine concentration ([2]; 120 mg, time 2) was 122.67 and the Serum noribogaine concentration ([2]; 120 mg, time 2.5) was 135.05. The Serum noribogaine concentration ([2]; 120 mg, time 3) was 130.55, the Serum noribogaine concentration ([2]; 120 mg, time 3.5) was 128.20 and the Serum noribogaine concentration ([2]; 120 mg, time 4) was 143.90. The Serum noribogaine concentration ([2]; 120 mg, time 5) was 128.76, the Serum noribogaine concentration ([2]; 120 mg, time 6) was 118.16 and the Serum noribogaine concentration ([2]; 120 mg, time 7) was 110.76. The Serum noribogaine concentration ([2]; 120 mg, time 8) was 102.12, the Serum noribogaine concentration ([2]; 120 mg, time 12) was 77.88 and the Serum noribogaine concentration ([2]; 120 mg, time 16) was 62.24. The Serum noribogaine concentration ([2]; 120 mg, time 24) was 44.19, the Serum noribogaine concentration ([2]; 120 mg, time 36) was 28.83 and the Serum noribogaine concentration ([2]; 120 mg, time 48) was 19.54. It also gave a Serum noribogaine concentration ([2]; 120 mg, time 60) of 10.75, a Serum noribogaine concentration ([2]; 120 mg, time 72) of 7.75 and a Serum noribogaine concentration ([2]; 120 mg, time 96) of 4.66. It also gave a Serum noribogaine concentration ([2]; 120 mg, time 120) of 2.45, a Serum noribogaine concentration ([2]; 120 mg, time 144) of 1.20 and a Serum noribogaine concentration ([2]; 180 mg, time 0) of 0. The Serum noribogaine concentration ([2]; 180 mg, time 0.5) was 10.78, the Serum noribogaine concentration ([2]; 180 mg, time 1) was 65.68 and the Serum noribogaine concentration ([2]; 180 mg, time 1.5) was 134.19. The Serum noribogaine concentration ([2]; 180 mg, time 2) was 163.32, the Serum noribogaine concentration ([2]; 180 mg, time 2.5) was 179.63 and the Serum noribogaine concentration ([2]; 180 mg, time 3) was 221.67. For the same molecule, the Serum noribogaine concentration ([2]; 180 mg, time 3.5) was 236.27, the Serum noribogaine concentration ([2]; 180 mg, time 4) was 238.87 and the Serum noribogaine concentration ([2]; 180 mg, time 5) was 217.26. For the same molecule, the Serum noribogaine concentration ([2]; 180 mg, time 6) was 197.10, the Serum noribogaine concentration ([2]; 180 mg, time 7) was 207.47 and the Serum noribogaine concentration ([2]; 180 mg, time 8) was 185.55. For the same molecule, the Serum noribogaine concentration ([2]; 180 mg, time 12) was 159.53, the Serum noribogaine concentration ([2]; 180 mg, time 16) was 127.63 and the Serum noribogaine concentration ([2]; 180 mg, time 24) was 97.34. It also gave a Serum noribogaine concentration ([2]; 180 mg, time 36) of 59.50, a Serum noribogaine concentration ([2]; 180 mg, time 48) of 43.75 and a Serum noribogaine concentration ([2]; 180 mg, time 60) of 33.69. The Serum noribogaine concentration ([2]; 180 mg, time 72) was 23.06, the Serum noribogaine concentration ([2]; 180 mg, time 96) was 13.04 and the Serum noribogaine concentration ([2]; 180 mg, time 120) was 3.37. For the same molecule, the Serum noribogaine concentration ([2]; 180 mg, time 144) was 1.61.
